This is an account of results in ChEMBL document CHEMBL5584311, “Antiviral Chlorinated Drimane Meroterpenoids from the Fungus Talaromyces pinophilus LD-7 and Their Biosynthetic Pathway” (J Nat Prod, 2024).

In one assay the test system is HL-60. Briefly: Cytotoxicity against human HL-60 cells. Format: functional.
The test system of another assay is K562. Briefly: Cytotoxicity against human K562 cells. The class given is functional.
The next assay relates to MGC-803. Briefly: Cytotoxicity against human MGC-803 cells. The class given is functional.
In another assay the test system is Bel-7402. Briefly: Cytotoxicity against human Bel-7402 cells. The class given is functional.
For a further assay, the system named is SH-SY5Y. The experiment in a line: Cytotoxicity against human SH-SY5Y cells. The class given is functional.
In a further assay the test system is HCT-116. The experiment in a line: Cytotoxicity against human HCT-116 cells. The class given is functional.
The test system of a further assay is MDA-MB-231. Briefly: Cytotoxicity against human MDA-MB-231 cells. Format: functional.
Another assay concerns A549. Briefly: Cytotoxicity against human A549 cells. Format: functional.
Assay [1] is described as follows: Cytotoxicity against human MCF7/ADM cells. The class given is functional.
Assay [2] is described as follows: Cytotoxicity against human HO-8910 cells. The class given is functional.
The next assay has as its system U-87 MG. The experiment in a line: Cytotoxicity against human U87 cells. The class given is functional, U-87MG ATCC.
For a further assay, the system named is NCI-H1975. The experiment in a line: Cytotoxicity against human NCI-H1975 cells. Format: functional.
The test system of assay [3] is Vesicular stomatitis virus. The experiment in a line: Antiviral activity against Vesicular stomatitis virus infected in African green monkey Vero cells assessed as inhibition of cytopathic effect pre-infected with cells for 12 hrs followed by viral infection and measured after 24 hrs by fluorescence based CPE reduction method. Format: functional, organism-based. Background: Cytopathic effects are the visible damage that an infection or toxin causes in cultured cells.

The test system of another assay is Hepatitis C virus. The experiment in a line: Antiviral activity against HCV infected in human Huh7.5 cells stably expressing firefly luciferase by microplate luminometer based analysis. The class given is functional, organism-based, Hepacivirus hominis.

One may read the CC50 as the concentration at which the toxic effect on the cells reaches its halfway point. For orientation: pIC50 means the IC50 on a negative log10 scale, so that one unit is a factor of ten.

pIC50: −log10 of the molar value.

With `C[C@@H]1Cc2c3c(cc(O)c2C(=O)O1)O[C@]1(C)CCC[C@](C)([C@H]2C[C@@H](O)C2(C)C)[C@H]1C3`, the CC50 with HL-60, with K562, in the assay with MGC-803, in the assay on Bel-7402, in the assay with SH-SY5Y and with HCT-116 was 3.35 µM throughout. Moreover, the CC50 (in the assay with MDA-MB-231; with A549; in assay [1]; in [2]; in the assay with U-87 MG; in the assay on NCI-H1975) was 3.35 µM throughout. For `CC(C)C1=CC[C@@]2(C)C(=O)CC[C@@]3(C)Oc4cc(O)c5c(c4C[C@@]32O1)[C@@H](O)[C@@H](C)OC5=O`, the pIC50 in assay [3] was 6.01. On the same count and under the same terms, as for `CC(C)[C@@]12CC[C@]3(C)[C@]4(Cc5c(cc(O)c6c5[C@@H](O)[C@@H](C)OC6=O)O[C@]4(C)CC[C@]3(O)O1)O2`, the figure is 6.37; as for `CC(C)[C@@]12CC[C@]3(C)[C@]4(Cc5c6c(c(O)c(Cl)c5O[C@]4(C)CC[C@]3(O)O1)C(=O)O[C@H](C)C6)O2`, 6.74. On the same count and under the same terms, as for `CC(=O)O[C@@H]1c2c3c(cc(O)c2C(=O)O[C@@H]1C)O[C@]1(C)CC[C@@H]2O[C@@]4(C(C)C)CC[C@]2(C)[C@]1(C3)O4`, the figure is 6.31. In the case of `CC1=C(O)C(=O)[C@@]23C(C)CC[C@@H]2[C@H](C)CO[C@]32Oc3cc(O)cc(CO)c3C=C12` (stereo not given in full), in the assay on Hepatitis C virus, the pIC50 is 5.02. For `CC(=O)O[C@@H]1c2c3c(cc(O)c2C(=O)O[C@@H]1C)O[C@]1(C)CCC(=O)[C@]2(C)CC=C(C(C)C)O[C@]12C3`, in assay [3], the negative-log IC50 (pIC50) was 6.49. Same read-out and setting: in the case of `CC(=O)O[C@@H]1c2c3c(cc(O)c2C(=O)O[C@@H]1C)O[C@]1(C)CC[C@]2(O)C(C)(C)[C@@]4(O)CC[C@]2(C)[C@]1(C3)O4` it was 6.72; in that of `CC(C)[C@]12CC[C@@]3(C)[C@H](CC[C@@]4(C)Oc5cc(O)c6c(c5C[C@@]43O1)C[C@@H](C)OC6=O)O2`, 6.04; in that of `C[C@@H]1Cc2c3c(cc(O)c2C(=O)O1)O[C@]1(C)CC[C@H]2C(C)(C)C(=O)CC[C@]2(C)[C@H]1C3`, 7.64.

As for `CC(=O)O[C@@H]1c2c3c(c(Cl)c(O)c2C(=O)O[C@@H]1C)O[C@]1(C)CCC(=O)[C@]2(C)CC=C(C(C)C)O[C@]12C3`, in [3], the negative-log IC50 (pIC50) was 6.55. Still for that read-out and setting: in the case of `CC(=O)O[C@@H]1c2c3c(c(Cl)c(O)c2C(=O)O[C@@H]1C)O[C@]1(C)CC[C@@H]2O[C@@]4(C(C)C)CC[C@]2(C)[C@]1(C3)O4` it was 7.09.

Regarding `C[C@@H]1Cc2c3c(cc(O)c2C(=O)O1)O[C@]1(C)CC[C@]2(O)C(C)(C)[C@@]4(O)CC[C@]2(C)[C@]1(C3)O4`, the negative-log IC50 (pIC50) in [3] is 6.89.

`C[C@@H]1Cc2c3c(c(Cl)c(O)c2C(=O)O1)O[C@]1(C)CC[C@H]2C(C)(C)C(=O)CC[C@]2(C)[C@@]1(O)C3`: the pIC50 in assay [3] is 7.82. On the same count and under the same terms, in the case of `C[C@@H]1Cc2c3c(c(Cl)c(O)c2C(=O)O1)O[C@]1(C)CC[C@]2(O)C(C)(C)[C@@]4(O)CC[C@]2(C)[C@]1(C3)O4` it was 7.08; in that of `CC(C)[C@]12CC[C@@]3(C)[C@H](CC[C@@]4(C)Oc5c(Cl)c(O)c6c(c5C[C@@]43O1)C[C@@H](C)OC6=O)O2`, 7.74.

As to `CC(=O)O[C@@H]1c2c3c(cc(O)c2C(=O)O[C@@H]1C)O[C@]1(C)CC[C@]2(O)O[C@@]4(C(C)C)CC[C@]2(C)[C@]1(C3)O4`, the negative logarithm of the IC50 (pIC50) in [3] was 6.24. Take `CC(=O)O[C@@H]1c2c3c(c(Cl)c(O)c2C(=O)O[C@@H]1C)O[C@]1(C)CC[C@]2(O)O[C@@]4(C(C)C)CC[C@]2(C)[C@]1(C3)O4`: in assay [3], the negative-log IC50 (pIC50) was 6.59. Same read-out and setting: as for `NC(=O)c1ncn([C@@H]2O[C@H](CO)[C@@H](O)[C@H]2O)n1` [RIBAVIRIN], the figure is 7.34.
